Test results taken from patent US11096916B2, “Use of nicotinic acetylcholine receptor alpha 7 activators” (NOVARTIS AG, priority 2009, dated 2021).

How the values were obtained:
[1] = Oral bioavailability and brain penetration in mice; assay type: in vivo; details: 30 μmol/kg p.o.
Description: Compounds were orally (30 μmol/kg) administered. Male mice (30-35 g, OF1/ICstrain) were sacrificed at indicated time points after oral administration. Trunk-blood was collected in EDTA-containing tubes and the brain was removed and immediately frozen on dry ice.
To 100 μl plasma 10 μl internal standard (1.0 μmol of a compound with solubility and ionization properties similar to test compounds) was added and extracted three times with 500 μl dichloromethane. The combined extracts were then dried under a stream of nitrogen and re-dissolved in 100 μl acetonitrile/water (70% acetonitrile). Brains were weighed and homogenized in water (1:5 w/v). Two 100 μl aliquots of each homogenate+10 μl of internal standard (same standard as used for the plasma samples) were extracted three times with 500 μl dichloromethane and further processed as the plasma samples. Samples were separated on Beckmann high-performance liquid chromatography equipment system with an autosampler (Gilson 233XL).
The limit of detection (LOD), defined as the lowest concentration of the extracted standard sample with a signal to noise ratio of ˜3.

human α7-nAChR = target: T1, human α7-nAChR (Homo sapiens, UniProt P36544); test: functional assay, calcium influx (FLIPR) in GH3 cells recombinantly expressing human α7-nAChR; assay type: cell-based; details: for α7-nAChR activity Efficacy compared to epibatidine (100%): Emax, maximal effect compared to the epibatidine response
T1 construct: expressed in transfected cells; host or cells: GH3 cells (rat pituitary cell line)
T1 sequence (P36544 23-502): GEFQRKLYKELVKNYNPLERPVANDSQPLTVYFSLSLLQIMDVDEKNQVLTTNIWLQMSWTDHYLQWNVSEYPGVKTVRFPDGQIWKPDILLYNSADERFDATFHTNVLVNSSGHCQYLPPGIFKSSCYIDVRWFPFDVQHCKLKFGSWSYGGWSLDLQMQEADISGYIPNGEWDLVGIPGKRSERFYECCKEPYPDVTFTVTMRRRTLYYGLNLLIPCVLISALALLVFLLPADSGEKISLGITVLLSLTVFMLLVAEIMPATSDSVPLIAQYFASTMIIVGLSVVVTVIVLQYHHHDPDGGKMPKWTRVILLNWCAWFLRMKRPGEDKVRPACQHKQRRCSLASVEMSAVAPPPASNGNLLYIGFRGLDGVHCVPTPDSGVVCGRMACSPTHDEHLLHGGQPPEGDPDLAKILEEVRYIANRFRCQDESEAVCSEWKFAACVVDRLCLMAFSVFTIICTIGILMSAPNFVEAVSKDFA
Description: To assess α7-nAChR activity, a functional assay was employed using GH3 cells that recombinantly expressed human α7-nAChR. 50000 cells per well were seeded 72 h prior to the experiment on black 96-well plates (Costar) and incubated at 37° C. in a humidified atmosphere (5% CO2/95% air). On the day of the experiment, medium was removed by flicking the plates and replaced with 100 μl growth medium containing […] Fluo-4, (Molecular Probes) in the presence of 2.5 mM probenecid (Sigma). The cells were incubated at 37° C. in a humidified atmosphere (5% CO2/95% air) for 1 h. Plates were flicked to remove excess of Fluo-4, washed twice with Hepes-buffered salt solution (in mM: NaCl 130, KCl 5.4, CaCl2 2, MgSO4 0.8, NaH2PO4 0.9, glucose 25, Hepes 20, pH 7.4; HBS) and refilled with 100 μl of HBS containing antagonist when appropriate. The incubation in the presence of the antagonist lasted 3-5 minutes. Plates were placed in the cell plate stage of a FLIPR device (fluorescent imaging plate reader, Molecular Devices, Sunnyvale, Calif., USA). After recording of the baseline (laser: excitation 488 nm at 1 W, CCD camera opening of 0.4 seconds) the agonists (50 μl) were added to the cell plate using the FLIPR 96-tip pipettor while simultaneously recording the fluorescence.
Calcium kinetic data were normalized to the maximal fitted response induced by epibatidine, which is a full agonist at α7-nAChR. Four parameter Hill equations were fitted to the concentration-response. Values of Emax (maximal effect in % compared to the epibatidine response) and EC50 (concentration producing half the maximal effect in μM) were derived from this fit.

[2] = target: T2, human neuronal nAChR α4β2 (Homo sapiens, UniProt P17787+P43681); test: similar functional assay in human epithelial cell line stably expressing human α4β2 subtype; assay type: cell-based; details: α7-nAChR against α4β2-nAChR
T2 construct: expressed in transfected cells; host or cells: human epithelial cell line (named a human embryonic kidney cell line)
T2 sequence (P43681 29-627 limits assumed): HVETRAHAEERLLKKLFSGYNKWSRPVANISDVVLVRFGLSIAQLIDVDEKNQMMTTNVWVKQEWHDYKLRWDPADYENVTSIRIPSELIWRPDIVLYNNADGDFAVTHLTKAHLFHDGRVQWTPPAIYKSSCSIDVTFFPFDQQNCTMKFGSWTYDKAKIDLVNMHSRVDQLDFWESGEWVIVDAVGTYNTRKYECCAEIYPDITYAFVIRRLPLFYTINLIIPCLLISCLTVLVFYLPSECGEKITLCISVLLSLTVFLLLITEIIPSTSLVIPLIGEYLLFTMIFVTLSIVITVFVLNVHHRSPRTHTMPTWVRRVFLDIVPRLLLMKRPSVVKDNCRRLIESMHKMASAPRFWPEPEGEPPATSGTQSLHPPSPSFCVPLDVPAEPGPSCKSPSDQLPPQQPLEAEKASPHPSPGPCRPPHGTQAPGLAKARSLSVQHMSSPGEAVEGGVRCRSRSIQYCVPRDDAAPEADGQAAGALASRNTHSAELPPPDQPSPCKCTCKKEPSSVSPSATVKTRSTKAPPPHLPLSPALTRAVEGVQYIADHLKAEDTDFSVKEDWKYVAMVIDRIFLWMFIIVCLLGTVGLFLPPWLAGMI
T2 sequence (P17787 26-502): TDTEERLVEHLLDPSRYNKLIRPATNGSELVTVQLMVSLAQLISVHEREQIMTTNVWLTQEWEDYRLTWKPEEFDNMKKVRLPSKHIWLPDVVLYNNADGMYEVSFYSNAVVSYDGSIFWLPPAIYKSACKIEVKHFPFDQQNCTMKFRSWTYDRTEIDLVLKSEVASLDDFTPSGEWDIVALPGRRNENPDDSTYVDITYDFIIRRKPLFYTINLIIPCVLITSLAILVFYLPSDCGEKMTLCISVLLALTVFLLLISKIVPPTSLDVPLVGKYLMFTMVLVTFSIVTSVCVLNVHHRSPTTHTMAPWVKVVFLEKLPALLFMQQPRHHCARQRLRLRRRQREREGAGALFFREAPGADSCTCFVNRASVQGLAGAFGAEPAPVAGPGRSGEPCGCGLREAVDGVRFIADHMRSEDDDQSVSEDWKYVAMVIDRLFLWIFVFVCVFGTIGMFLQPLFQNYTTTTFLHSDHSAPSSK
Description: To assess the activity of the compound of the invention on the human neuronal nAChR α4β2, a similar functional assay is carried out using a human epithelial cell line stably expressing the human α4β2 subtype (Michelmore et al., Naunyn-Schmiedeberg's Arch. Pharmacol. (2002) 366, 235).

mice = test: Social Recognition Test in mice; assay type: in vivo, mouse; details: oral, familiar partner at 24 h vs time 0
Description: Social interactions between two experimental animals are influenced by their degree of familiarity: the better they know each other, the less time they spend on mutual scrutiny at each meeting. […] Memory enhancing agents (i.e. oxiracetam) facilitate learning to the extent that the previously met (familiar) partner is still remembered after 24 h, whereas in vehicle treated control animals the memory usually fades after less than 1 hour (Thor and Holloway, 1982) or after 2-3 hours.
Pairs consisting of one adult and one young mouse were assigned at random to the experimental and control groups. In each pair only the adult mouse was orally treated 1 hour before the trial with either vehicle or the test compound. The duration of active contacts of the adult mouse with the young mouse was manually recorded over a period of 3 min, including the following behavioural, approach-related items: sniffing, nosing, grooming, licking, pawing and playing, anogenital exploration and orientation toward the young mouse; orientation, thereby, was defined as tip of nose of the adult mouse less than approximately 1 cm distant from the young mouse's body.
Twenty-four hours after the baseline-test, the adults in each treatment group were confronted again with […] the half of the adult animals were put together with the previously encountered (familiar) partner and the other half with another (unfamiliar) young mouse. Again the duration of active approach-behaviours was recorded during a 3-min period. Prior to re-test no oral injection was given.
In the table the reduction in time scrutinizing the familiar partner at time 24 compared with the familiar partner at time 0 minutes is given (value of zero would signify no reduction).

parkinsonian primates = test: Assessment of antidyskinetic effect in parkinsonian primates (MPTP, levodopa-induced dyskinesia); assay type: in vivo, cynomolgus monkeys (Macaca fascicularis); details: for Duration of Levodopa-Response / Mean Dyskinesia Score (total period): five MPTP monkeys
Description: Female ovariectomized cynomolgus monkeys (Macaca fascicularis) are used in the assessment. The animals can be rendered parkinsonian by continuous infusion of 1-methyl-4-phenyl-1,2,3,6-tetrahydropyridine (MPTP) until they develop a stable parkinsonian syndrome. After recuperation, animals are treated daily with levodopa until clear and reproducible dyskinesias are developed.
Monkeys are observed through a one-way screen window in their home cage. They are observed and scored repeatedly at baseline and after a standard s.c. dose of levodopa. Locomotor activity is assessed and followed with an electronic monitoring system. Antiparkinsonian responses are evaluated by measuring the locomotor activity and a Parkinson disability scale (see Hadj Tahar A et al, Clin Neuropharmacol 2000; 23:195-202; and Samadi P et al, Neuropharmacology 2003; 45:954-963). Dyskinesias are closely monitored and scored according to a dyskinesia rating scale (also described in Hadj Tahar A et al; and Samadi P et al) every 15 minutes until the end of the effect. The doses of levodopa are chosen to induce motor activation and reproducible dyskinesia but no excessive agitation.
Monkeys are observed for at least two hours following an oral administration of vehicle. On a subsequent day, the dose of levodopa selected is tested once. The animals are observed (with measures of parkinsonian and dyskinetic scores) for the entire duration of the levodopa effect and are also monitored for locomotor activity. This provides vehicle control values as well as levodopa antiparkinsonian and dyskinesia response data for comparison with combinations of a α7-nAChR agonist/positive allosteric modulator and levodopa. The monkeys are then tested with a α7-nAChR agonist/positive allosteric modulator in combination with a fixed dose of levodopa. A suspension for oral administration of the α7-nAChR agonist/positive allosteric modulator is administered before levodopa. After each dose, the animals are observed (with measures of parkinsonian and dyskinetic scores) for the entire duration of effect and monitored for locomotor activity or any change in behavior (e.g. circling, excitement, lethargy and sleepiness).
Using this protocol, compound A-1 at a dose of 20 mg/kg was tested. Results based on five monkeys (levodopa/benserazide doses: 22.5/50 mg; 65/50 mg; 30/50 mg; 35/50 mg; and 25/50 mg) are shown in FIGS. 1-4.

[3] = MPTP monkeys, A-1 20 mg/kg plus levodopa/benserazide, result in words
[4] = compound A-1 20 mg/kg oral before levodopa/benserazide
[5] = levodopa/benserazide without compound A-1

Row | SMILES | Brain (pmoles/g ± SD) ([1]; 0.25 hour) | Brain (pmoles/g ± SD) ([1]; 0.5 hour) | Brain (pmoles/g ± SD) ([1]; 1 hour) | Brain (pmoles/g ± SD) ([1]; 2 hour) | Brain (pmoles/g ± SD) ([1]; 4 hour) | Brain (pmoles/g ± SD) ([1]; 8 hour) | α7-nAChR activity Efficacy compared to epibatidine (100%) (human α7-nAChR) | fold selectivity [2] | Reduction in time scrutinizing in % ± SEM at 24 h (mice; dose 0.3 mg/kg) | Brain (pmoles/g ± SD) ([1]; 24 hour) | other results
1 | c1cc2cc(-c3cnc(O[C@H]4CCN5CCC[C@@H]4C5)nc3)ccc2[nH]1 [C-1, (4S,5R)-4-[5-(1H-indol-5-yl)-pyrimidin-2-yloxy]-1-aza-bicyclo[3.3.1]nonane] | 620 ± 221 pmol/g | 1405 ± 539 pmol/g | 1458 ± 189 pmol/g | 1478 ± 259 pmol/g | 842 ± 187 pmol/g | 362 ± 62 pmol/g | 84% | 388 fold | 51 ± 3% |  | 
2 | C[C@H]1[C@H](Oc2ccc(-c3ccc4[nH]ccc4c3)nn2)C2CCN1CC2 [B-13, (2S,3R)-3-[6-(1H-indol-5-yl)-pyridazin-3-yloxy]-2-methyl-1-aza-bicyclo[2.2.2]octane] | 1884 ± 291 pmol/g | 2960 ± 706 pmol/g | 2940 ± 335 pmol/g | 1260 ± 172 pmol/g | 379 ± 134 pmol/g | 93 ± 30 pmol/g | 89% | 324 fold | 37 ± 7% | 13 ± 4 pmol/g | Plasma (pmoles/ml ± SD) ([1]; 0.25 hour): 2196 ± 397 pmol/mL; Plasma (pmoles/ml ± SD) ([1]; 0.5 hour): 2265 ± 419 pmol/mL; Plasma (pmoles/ml ± SD) ([1]; 1 hour): 1554 ± 523 pmol/mL; Plasma (pmoles/ml ± SD) ([1]; 2 hour): 1172 ± 252 pmol/mL; Plasma (pmoles/ml ± SD) ([1]; 4 hour): 429 ± 167 pmol/mL; Plasma (pmoles/ml ± SD) ([1]; 8 hour): 80 ± 23 pmol/mL
3 | C[C@H](OC(=O)N[C@@H]1CN2CCC1CC2)c1ccccc1F [A-1, (S)-(1-aza-bicyclo[2.2.2]oct-3-yl)-carbamic acid (S)-1-(2-fluoro-phenyl)-ethyl ester] |  | 706.3 ± 153.4 pmol/g | 573.7 ± 109.3 pmol/g | 191.9 ± 34.9 pmol/g | 104.6 ± 39.6 pmol/g |  | 83% | 234 fold |  | 9.1 ± 2.7 pmol/g | Brain (pmoles/g ± SD) ([1]; 6 hour): 40.5 ± 12.1 pmol/g; EC50 (human α7-nAChR; read-out: α7-nAChR activity Potency EC50): 100 nM; antiparkinsonian activity of levodopa (antiparkinsonian score) (parkinsonian primates; [3]): does not lower; duration of the antiparkinsonian activity of levodopa (parkinsonian primates; [3]): significantly increases; levodopa-induced dyskinesias (parkinsonian primates; [3]): significantly reduces; onset of action of levodopa (Elapsed Time after Levodopa Administration) (parkinsonian primates; [3]): does not delay; Duration of Levodopa-Response (parkinsonian primates; [4]): 265 min; Mean Dyskinesia Score (total period) (parkinsonian primates; [4]): 2.1; Reduction in time scrutinizing in % ± SEM at 24 h (mice; dose 3 mg/kg): 52 ± 4%
4 | N[C@@H](Cc1ccc(O)c(O)c1)C(=O)O [levodopa, reference compound] |  |  |  |  |  |  |  |  |  |  | Duration of Levodopa-Response (parkinsonian primates; [5]): 230 min; Mean Dyskinesia Score (total period) (parkinsonian primates; [5]): 2.8
